Activity calls are given as the source filed them. The calls are words filed in the database; no cut-off is given here.
Experiments:
Staphylococcus aureus [1] = test: Antibacterial activity against methicillin-resistant Staphylococcus aureus 3 infected in KM mouse assessed as reduction in inflammatory cells in subcutaneous tissue at 5 to 10 mg/kg administered into skin infection site measured after 24 hrs by H and E staining based analysis; format: functional, organism-based; details: dose 5-10 mg/kg
[2] = Hemolytic activity in sheep erythrocytes incubated for 1 hr by absorbance based analysis; format: toxicity, cell-based, Ovis aries, Erythrocyte
[3] = Toxicity in KM mouse assessed as abnormalities in skin at 5 to 20 mg/kg, sc administered into middle dorsum and measured after 24 hrs; format: organism-based; details: in vivo, dose 5-20 mg/kg
Staphylococcus aureus [4] = test: Anti-MRSA activity against methicillin-resistant Staphylococcus aureus 3 incubated for 16 to 18 hrs in presence of 0 to 32 ug/ml cardiolipin by checkerboard broth dilution method; format: functional; details: time 16-18 hrs
Staphylococcus aureus [5] = test: Antibacterial activity against methicillin-resistant Staphylococcus aureus clinical isolate 3 incubated for 16 to 18 hrs by CLSI-based microbroth dilution method; format: functional; details: time 16-18 hrs
Staphylococcus aureus [6] = test: Induction of drug resistance in Staphylococcus aureus ATCC 29213 assessed as increase in MIC at 0.5 times MIC measured for 20 passages; format: functional
Staphylococcus aureus [7] = test: Antibacterial activity against methicillin-resistant Staphylococcus aureus clinical isolate 9 incubated for 16 to 18 hrs by CLSI-based microbroth dilution method; format: functional; details: time 16-18 hrs
Staphylococcus aureus [8] = test: Antibacterial activity against methicillin-resistant Staphylococcus aureus clinical isolate 10 incubated for 16 to 18 hrs by CLSI-based microbroth dilution method; format: functional; details: time 16-18 hrs
Staphylococcus aureus [9] = test: Bactericidal activity against Staphylococcus aureus ATCC 29213 at 8 times MIC measured at 1 hr by time kill assay; format: functional, organism-based
[10] = Toxicity in KM mouse assessed as effect on WBC count at 20 mg/kg, sc administered into middle dorsum and measured after 24 hrs by routine blood test; format: organism-based; details: in vivo
[11] = Toxicity in KM mouse assessed as pathological changes in lungs at 20 mg/kg, sc administered into middle dorsum and measured after 24 hrs by H and E staining based analysis; format: organism-based; details: in vivo
Cell membrane [12] = test: Disruption of membrane integrity in methicillin-resistant Staphylococcus aureus 3 assessed as increase in protein leakage at 1 to 8 times MIC incubated for 4 hrs by microspectrophotometer analysis; format: subcellular
Staphylococcus aureus [13] = test: Bactericidal activity against methicillin-resistant Staphylococcus aureus 3 incubated for 6 hrs in presence of 50% sheep plasma; format: functional, organism-based
Staphylococcus aureus [14] = test: Bactericidal activity against methicillin-resistant Staphylococcus aureus 3 at 8 times MIC measured at 2 hrs by plate colony counting method; format: functional, organism-based
Staphylococcus aureus [15] = test: Anti-MRSA activity against methicillin-resistant Staphylococcus aureus 3 incubated for 16 to 18 hrs in presence of 64 ug/ml cardiolipin by checkerboard broth dilution method (reference value: 1 ug/ml); format: functional; details: time 16-18 hrs
Staphylococcus aureus [16] = test: Antibacterial activity against methicillin-resistant Staphylococcus aureus 3 infected in KM mouse assessed as reduction in bacterial load at infection site by measuring colony forming units at 10 mg/kg administered into skin infection site measured after 24 hrs; format: functional
[17] = Toxicity in KM mouse infected with methicillin-resistant Staphylococcus aureus 3 assessed as histopathological abnormalities in spleen at 5 to 10 mg/kg administered into skin infection site measured after 24 hrs by H and E staining based analysis; format: organism-based; details: in vivo, topical_or_ocular, dose 5-10 mg/kg
[18] = Toxicity in KM mouse infected with methicillin-resistant Staphylococcus aureus 3 assessed as histopathological abnormalities in lungs at 5 to 10 mg/kg administered into skin infection site measured after 24 hrs by H and E staining based analysis; format: organism-based; details: in vivo, topical_or_ocular, dose 5-10 mg/kg
Cell membrane [19] = test: Disruption of membrane integrity in methicillin-resistant Staphylococcus aureus 3 assessed as appearance of wrinkled cell surface at 16 ug/ml incubated for 240 mins by SEM analysis; format: subcellular; details: dose 16.0 µg/ml
[20] = Toxicity in KM mouse assessed as effect on mean corpuscular volume at 20 mg/kg, sc administered into middle dorsum and measured after 24 hrs by routine blood test; format: organism-based; details: in vivo
Cell membrane [21] = test: Induction of membrane depolarization in methicillin-resistant Staphylococcus aureus 3 assessed as fold increase in fluorescence intensity at 8 to 16 ug/ml measured after 20 mins by DiSC35 dye-based fluorescence assay relative to control; format: subcellular; details: dose 8-16 µg/ml
[22] = Toxicity in KM mouse infected with methicillin-resistant Staphylococcus aureus 3 assessed as histopathological abnormalities in heart at 5 to 10 mg/kg administered into skin infection site measured after 24 hrs by H and E staining based analysis; format: organism-based; details: in vivo, topical_or_ocular, dose 5-10 mg/kg
[23] = Toxicity in KM mouse assessed as mortality at 5 to 80 mg/kg, sc administered into middle dorsum and measured after 24 hrs; format: organism-based; details: in vivo, dose 5-80 mg/kg
Staphylococcus aureus [24] = test: Anti-MRSA activity against methicillin-resistant Staphylococcus aureus 3 incubated for 16 to 18 hrs in presence of 0 to 64 ug/ml phosphatidylethanolamine by checkerboard broth dilution method; format: functional, organism-based; details: time 16-18 hrs
Staphylococcus aureus [25] = test: Antibacterial activity against methicillin-resistant Staphylococcus aureus clinical isolate 8 incubated for 16 to 18 hrs by CLSI-based microbroth dilution method; format: functional; details: time 16-18 hrs
Staphylococcus aureus [26] = test: Bactericidal activity against Staphylococcus aureus ATCC 29213 at 4 times MIC by time kill assay; format: functional, organism-based; details: time 0-8 hrs, TDE = time-dependent effect
Staphylococcus aureus [27] = test: Antibacterial activity against methicillin-resistant Staphylococcus aureus clinical isolate 1 incubated for 16 to 18 hrs by CLSI-based microbroth dilution method; format: functional; details: time 16-18 hrs
[28] = Toxicity in KM mouse assessed as pathological changes in liver at 20 mg/kg, sc administered into middle dorsum and measured after 24 hrs by H and E staining based analysis; format: organism-based; details: in vivo
Staphylococcus aureus [29] = test: Antibacterial activity against methicillin-resistant Staphylococcus aureus 3 infected in KM mouse assessed as appearance of smoother dorsal skin at 10 mg/kg administered into skin infection site measured after 24 hrs; format: functional, organism-based
Staphylococcus aureus [30] = test: Antibacterial activity against methicillin-resistant Staphylococcus aureus clinical isolate 4 incubated for 16 to 18 hrs by CLSI-based microbroth dilution method; format: functional; details: time 16-18 hrs
Cell membrane [31] = test: Disruption of membrane integrity in methicillin-resistant Staphylococcus aureus 3 assessed as increase in intense blue fluorescence at 8 times MIC incubated for 4 hrs by DAPI/PI staining based laser confocal microscopic analysis; format: subcellular
[32] = Toxicity in KM mouse assessed as redness in skin at 40 to 80 mg/kg, sc administered into middle dorsum and measured after 24 hrs; format: organism-based; details: in vivo, dose 40-80 mg/kg
[33] = Toxicity in KM mouse assessed as effect on albumin level at 20 mg/kg, sc administered into middle dorsum and measured after 24 hrs by routine blood test; format: organism-based; details: in vivo
Staphylococcus aureus [34] = test: Antibacterial activity against methicillin-resistant Staphylococcus aureus 3 infected in KM mouse assessed as reduction in abscesses inside the skin at 5 mg/kg administered into skin infection site measured after 24 hrs; format: functional, organism-based
Cell membrane [35] = test: Disruption of membrane integrity in methicillin-resistant Staphylococcus aureus 3 assessed as increase in red fluorescence at 8 times MIC incubated for 4 hrs by DAPI/PI staining based laser confocal microscopic analysis; format: subcellular
Cell membrane [36] = test: Disruption of membrane integrity in methicillin-resistant Staphylococcus aureus 3 assessed as increase in DNA leakage at 1 to 8 times MIC incubated for 4 hrs by microspectrophotometer analysis; format: subcellular
Staphylococcus aureus [37] = test: Anti-MRSA activity against methicillin-resistant Staphylococcus aureus 3 incubated for 16 to 18 hrs in presence of 0 to 32 ug/ml phosphatidylglycerol by checkerboard broth dilution method; format: functional; details: time 16-18 hrs

CCCN(CCC)C(=O)C[N+](C)(C)CCCCOc1ccc(/C=C/C(=O)c2c(OC)cc3c(c2O)C=CC(C)(C)O3)cc1.[Br-]
Activity (Staphylococcus aureus [1]): Active
HC50 at 1 h [2]: 338 µg/mL
Activity [3]: Non-Toxic
MIC (Staphylococcus aureus [4]): 1 µg/mL
MIC (Staphylococcus aureus [5]): 1 µg/mL
Activity (Staphylococcus aureus [6]): inactive
MIC (Staphylococcus aureus [7]): 2 µg/mL
MIC (Staphylococcus aureus [8]): 1 µg/mL
Activity (Staphylococcus aureus [9]): Active
Activity [10]: Non-Toxic
Activity [11]: Non-Toxic
Activity (Cell membrane [12]): Dose-Dependent Effect
Activity (Staphylococcus aureus [13]): Active
Activity (Staphylococcus aureus [14]): Active
MIC (Staphylococcus aureus [15]): 32 µg/mL
Activity (Staphylococcus aureus [16]): 4.5 log10CFU/g
Activity [17]: Non-Toxic
Activity [18]: Non-Toxic
Activity (Cell membrane [19]): Active
Activity [20]: Non-Toxic
fold change (FC) (Cell membrane [21]): 6
Activity [22]: Non-Toxic
Activity [23]: Non-Toxic
Activity (Staphylococcus aureus [24]): Active
MIC (Staphylococcus aureus [25]): 2 µg/mL
Activity (Staphylococcus aureus [26]): Tde
MIC (Staphylococcus aureus [27]): 2 µg/mL
Activity [28]: Non-Toxic
Activity (Staphylococcus aureus [29]): Active
MIC (Staphylococcus aureus [30]): 2 µg/mL
Activity (Cell membrane [31]): Active
Activity [32]: Toxic
Activity [33]: Non-Toxic
Activity (Staphylococcus aureus [34]): inactive
Activity (Cell membrane [35]): Active
Activity (Cell membrane [36]): Dose-Dependent Effect
MIC (Staphylococcus aureus [37]): 1 µg/mL

— ChEMBL document CHEMBL5316298, “Discovery of Amphiphilic Xanthohumol Derivatives as Membrane-Targeting Antimicrobials against Methicillin-Resistant Staphylococcus aureus” (J Med Chem, 2023)
